Tests used:
HHV-1 = assay: Confocal microscopy, direct immunofluorescence staining of infected HaCaT cells; type: cell-based, Human herpesvirus 1; settings: acyclovir added to infected HaCaT; 48 hrs after infection; FIG. 19
From the text: Confocal microscopy (microscope magnification—60×, digital zoom) was used to view the cell structure status and positioning 48 hrs after infection with HHV-1 (FIG. 18). The method of direct immunofluorescence staining wherein the nucleus—blue (A), viral antigen —green (B), actin—red (C), nucleus/actin (D) helps further understand the structural changes in the cells. The same confocal microscopy technique was used to view the cell structure status and positioning after HHV-1 infection and treatment with Kalanchoe daigremontiana. As before the method of direct immunofluorescence staining is nucleus—blue (A), viral antigen—green (B), actin—red (C), nucleus/actin (D).

[1] = tested on: HaCaT cell line infected with HHV-1; assay: Vitality VB-48 Assay, HHV-1 infected cells; type: cell-based, human; settings: Control + acyclovir, mean
Description: Vitality VB-48 Assay (NucleoCounter NC-3000) was used to determine the percentage estimation of keratinocytes of varied degrees of viability after 24 h incubation with Kalanchoe daigremontiana extract.
An HHV-1 suspension was added to HaCaT cell line and incubated for 1 hour to enable adsorption of virus to cells. Afterwards, the cells were incubated with a plant extract of the respective dilution for 24 hrs to assess the viability of the keratinocytes with HHV-1 incubated with the respective dilutions of the extract of the invention as compared with Acyclovir.

[2] = tested on: HaCaT cell line infected with HHV-1; assay: Cell Count Assay (NucleoCounter NC-3000), HHV-1 infected cells; type: cell-based, human; settings: Control + acyclovir, HHV-1 infected HaCaT
Description: Next, cell viability additionally in the presence of the Herpes virus was investigated with a Cell Count Assay (NucleoCounter NC-3000). An HHV-1 suspension was added to HaCaT cell line and incubated for 1 hour to enable adsorption of virus to cells; the cells were then incubated with the extract, in the respective dilution ratios, for 24 hrs.

## Nc1nc2c(ncn2COCCO)c(=O)[nH]1 [acyclovir]
HHV-1
  amount of viral antigen: lower amount of viral antigen
[1]
  dead cells %: 77.1%
  healthy cells %: 3.27%
  lower viability cells %: 19.51%
[2]
  All cells Cell %: 79.67%
  All cells Mean intensity: 160070.3
  All cells Number of cells: 7648
  Dead cells Cell %: 24.05%
  Dead cells Mean intensity: 152872.9
  Dead cells Number of cells: 5683
  Viability [%]: 25.7%
[2]; listed as Acyclovir
  Viability [%]: 25%

— patent US20200276256A1, “SKIN CARE COMPOSITION” (ISN Pharma SP.Z.O.O., priority 2017, published 2020)
